Test results: publication PMC9963121, “Development of Combretastatin A-4 Analogues as Potential Anticancer Agents with Improved Aqueous Solubility” (Molecules, 2023)

Columns and labels:
[1] = tested on: HCT-116 colorectal cancer cell; test: MTT cell growth inhibition assay, HCT-116 colorectal cancer cells; assay type: cell-based, human; conditions: for IC50: Homo sapiens, HCT-116, MTT, mean ± SD of three experiments
Description: (§1) Initially, we designed and synthesised seven compounds—9a and 12a1–12a6—and evaluated the anticancer activity and aqueous solubility. We evaluated the cytotoxic effects of these stilbene nitrile analogues against a panel of four human cancer cell lines (HCT-116, BEL-7402, MCF-7 and AGS) and two human non-cancerous normal cell lines (L-02 and MCF-10A), using CA-4 as a control. The compounds were screened for aqueous solubility in 0.01 M PBS using a high throughput UV method. […] It is possible that the size of the nitrogen heterocycle had little effect on the activity of these compounds. […] The aqueous solubility of all the compounds 12a1–12a6 was higher than that of 9a, particularly that of 12a1 and 12a2 containing piperazine rings. […] Of the six compounds with improved aqueous solubility, 12a1 had the best activity.
(§2) All human cell lines were used in this study. AGS gastric cancer cell, BEL-7402 liver cancer cell, HCT-116 colorectal cancer cell, L-02 normal liver cell, MCF-7 breast cancer cell, and MCF-10A normal breast cell were initially purchased from American Type Culture Collection (ATCC, Manassas, VA, USA). RPMI-1640 media, DMEM and FBS, were provided by Gibco Company. The cells were maintained in DMEM or RPMI-1640, supplemented with 10% FBS, 100 IU/mL penicillin and […] streptomycin, and at 37 °C in a humidified atmosphere containing 5% CO2.
(§3) The experiment was carried out according to the method of reference.

[2] = Aqueous solubility in 0.01 M PBS, high throughput UV method; assay type: physicochemical; conditions: for Water solubility (in words): Figure 1; for solubility thermodynamic at 1.5 h: aqueous phosphate buffer, aqueous buffer, sodium phosphate buffer 0.01 M, pH 7.4, 22 ± 2 °C, mean ± SD
Description: as §1
The aqueous solubility was determined as a previously reported procedure. Put simply, a certain amount of powdered compound was placed in a 2 mL centrifuge tube and mixed with an appropriate volume of aqueous phosphate buffer (10 mM, pH 7.4) to make the whole system supersaturated. The mixtures were sonicated (KQ5200DE numerical control ultrasonic cleaner, Kunshan Ultrasonic Instrument Co., Ltd., SuZhou, China) for 20 min. After sonication, the mixture was allowed to equilibrate at RT (22 ± 2 °C) for 1.5 h with vortex shaking (1200 rpm). Then centrifuged at 3000 rpm for 15 min (1-14k, sigma, Darmstadt, Germany), the supernatant was filtered with a 0.22 µM filter membrane. And then, take 150 µL of filtrate and add it to 96-well UV plate with triplicate. Draw 150 μL of blank solution was added into plate as blank control. The 96-well UV plate prepared above was read on a Synergy HTX Multifunctional Microplate Reader (BioTek, Vermont, USA) at 294 nm. The absorbance of the sample was corrected according to the UV response of the sample and blank solution, and the corrected UV response values were used for solubility calculations by bringing into the standard curve of the compound. […]
1.5. Solubility Assessment
The aqueous solubility was determined as previously reported using the high throughput solubility screens procedure published by Bruno Bard et al [9. 10]. Put simply, a certain amount of powdered compound was placed in a 2 ml centrifuge tube and mixed with an appropriate volume of aqueous phosphate buffer (0.01 M, pH 7.4) to make the whole system supersaturated. The mixtures were sonicated (KQ5200DE numerical control ultrasonic cleaner, Kunshan Ultrasonic Instrument Co., Ltd., China) for 20 min. After sonication, the mixture was allowed to equilibrate at room temperature (22 ± 2°C) for 1.5 h with vortex shaking (1200 rpm). Then the centrifuge tube was put into the centrifuge (1-14k, sigma, Germany), centrifuged with 3000 rpm for 15 minutes, 0.22 µM filter membrane filtration supernatant, then take 150 µl filtrate and add it to 96-well UV plate, with three well for each compound. Draw 150 μL blank solution were added into 96 well-plate as blank control. The 96-well UV […]
plate prepared above was read on a SynergyHTX Multifunctional microplate reader (BioTek, USA) at 338 nm (compounds 12a-12d and 15-20) or 370 nm (compounds 9a-d). The absorbance of the sample was corrected according to the UV response of the sample and blank solution, and the corrected UV responses value were used for solubility calculations by bring into the standard curve of the compound. […]

[3] = set-up: method as in PMID 12067983, PMID 12807934, PMID 14645433; conditions: clinical data, intravenous CA-4P; cited from earlier work
[4] = Configuration (cis/trans) stability; conditions: Figure 1; cis/trans olefin configuration
Description: This vascular disrupting activity causes the tumor tissue vascular collapse, cutting down the oxygen and nutrient supply to tumor cells, leading to tumor cell death.
(compound 2, Figure 1). Still, the methyl group is difficult to modify chemically. […] Lipinski proposed the theory of the “Rule of 5” in 1997 [19], which is used to evaluate the pharmacokinetic characteristics of small molecule drugs.

[5] = tested on: MCF-7 breast cancer cell; test: MTT cell growth inhibition assay, MCF-7 breast cancer cells; assay type: cell-based; conditions: Homo sapiens, MCF7, mean ± SD of three experiments
Description: as §1, §2, §3

[6] = tested on: L-02 normal liver cell; test: MTT cell growth inhibition assay, L-02 normal liver cells; assay type: cell-based; conditions: Homo sapiens, mean ± SD of three experiments
Description: as §1, §2, §3

[7] = set-up: method as in earlier work; conditions: cited from earlier work
[8] = tested on: AGS gastric cancer cell; test: MTT cell growth inhibition assay, AGS gastric cancer cells; assay type: cell-based; conditions: Homo sapiens, mean ± SD of three experiments
Description: as §1, §2, §3

[9] = Compound stability in rat plasma, HPLC; assay type: in vitro ADME; conditions: 37 °C
Experimental: Blood was collected from SD rats (200–250 g, male and female, Animal Experimental Center of Yanbian University) into heparin tubes, and supernatant plasma was collected after centrifugation.
A certain amount of 9a and 12a1 were accurately weighed and mixed with rat plasma. After incubation at 37 ℃ for 0, 6, 12, 24 and 36 h, the plasma samples were treated with methanol and analyzed by HPLC to determine their stability in plasma.
A HITACHI Primaide HPLC liquid chromatography system was equipped and used for all analyses. Chromatographic separation was performed on a Welch Ultimate XB-C18 column (3.9 mm × 150 mm, 5 μm; Welch, China). The analytes were eluted using a gradient method with a flow rate of 1 mL/min. Mobile phase A was Ultra pure water, and mobile phase B was methanol according to the following gradient: (1) The gradient elution conditions of 9a: 0 to 8 min, 55% to 67% B; 8.1 to 15 min, 67% to 90% B; 15.1 to 25 min, 55% B. (2) The gradient elution conditions of 12a1: 0 to 9 min, 55% to 65% B; 9.1 to 12 min, 65% to 75% B; 12.1 to 15 min, 75% to 85% B; 15.1 to 20 min, 90% B; 20.1 to 30 min, 55% B. The injection volume was 3 μL. The column temperature was set at 40 °C. […]
1.6. Plasma stability assessment
Prepare plasma:blood was collected from SD rats (200-250g, male and female, Animal Experimental Center of Yanbian University) into heparin tubes, and supernatant plasma was collected after centrifugation.
A certain amount of 9a and 12a1 were accurately weighed and mixed with rat plasma.
After incubation at 37℃ for 0 h, 6 h, 12 h, 24 h and 36 h, the plasma samples were treated with methanol and analyzed by HPLC to determine their stability in plasma.
Analytical instrument and conditions:
A HITACHI Primaide HPLC liquid chromatography system equipped was used for all analyses. Chromatographic separation was performed on a Welch Ultimate XB-C18 column (3.9 mm × 150 mm, 5 μm; Welch, China). The analytes were eluted using a gradient method with a flow rate of 1 mL/min. Mobile phase A was Ultra pure water, and mobile phase B was methanol according to the following gradient: (1). The gradient elution conditions of 9a: 0 to 8 minutes, 55% to 67% B; 8.1 to 15 minutes, 67% to 90% B; 15.1 to 25 minutes, 55% B. (2). The gradient elution conditions of […]

[10] = tested on: BEL-7402 liver cancer cell; test: MTT cell growth inhibition assay, BEL-7402 liver cancer cells; assay type: cell-based; conditions: Homo sapiens, mean ± SD of three experiments, read-out: IC50 BEL-7402 Hepatoma Cells
Description: as §1, §2, §3

[11] = tested on: MCF-10A normal breast cell; test: MTT cell growth inhibition assay, MCF-10A normal breast cells; assay type: cell-based; conditions: Homo sapiens, mean ± SD of three experiments, read-out: IC50 MCF-10A Normal Breast Epithelial Cells
Description: as §1, §2, §3

Row | Aqueous solubility relative to CA-4 ([2]; ratio to CA-4) | Improvement in aqueous solubility over compound 2 ([2]; ratio to compound 2) | Decrease of HPLC peak area in rat plasma ([9]; within 36 h, UV 294 nm) | Plasma stability (in words) ([9]; rat plasma, 24 h) | IC50 [10] | Structure (SMILES) | IC50 [1] | Water solubility (in words) [2] | half-life [3] | Configuration stability (in words) [4] | solubility thermodynamic at 1.5 h [2] | IC50 [5] | IC50 [6] | Rat Plasma Protein Binding Rate [7] | IC50 [8] | Selectivity for HCT-116 cancer cells over L-02 normal cells ([1]; ratio of IC50 values L-02 / HCT-116) | Activity against HCT-116 relative to CA-4 ([1]; ratio to CA-4) | IC50 [11]
1 | – | – | – | – | – | COc1ccc(/C=C\c2cc(OC)c(OC)c(OC)c2)cc1OP(=O)([O-])[O-].[Na+].[Na+] [CA-4P, reference compound] | 590 ± 220 nM | Good water solubility | about 30 min | Configuration instability | – | – | – | – | – | – | – | –
2 | – | – | – | – | – | COc1ccc(/C=C\c2cc(OC)c(OC)c(OC)c2)cc1O [CA-4, Combretastatin A-4] | 160 nM | Poor water solubility | – | – | 57.7 µg/mL | 220 ± 90 nM | 1100 ± 30 nM | 72.3 ± 6.9% | 3420 ± 30 nM | – | – | –
3 | five times lower | two-fold | approximately 33% | retained plasma stability over 24 h | 140 ± 10 nM | COc1cc(/C(C#N)=C/c2ccc(N)cc2)cc(OC)c1OC [9a, (Z)-3-(4-aminophenyl)-2-(3,4,5-trimethoxyphenyl)acrylonitrile] | 20 ± 10 nM | Poor water solubility | – | – | 10.8 ± 0.7 µg/mL | 4820 ± 1570 nM | 20700 ± 3390 nM | – | 120 ± 10 nM | 1000 times | eight times higher | > 100000 nM
